Measured values reported in patent US20210169848A1, “USE OF NEUROKININ-1 ANTAGONISTS TO TREAT PRURITUS” (VYNE THERAPEUTICS INC., priority 2018, published 2021).

Experiments:
[1] = cited from earlier work
patients with pruritus = experiment: Pooled clinical studies, age-related effects of serlopitant (NRS change, NRS 4-point responder rate); assay type: in vivo, human; conditions: older patients (e.g., 40 years or older) compared with younger patients; pooled 1 mg and 5 mg
Experimental: Data obtained from the clinical studies described in Examples 6-8 for patients administered 1 mg and 5 mg serlopitant were pooled and evaluated on the basis of the age of the subjects.

[2] = tested on: subjects with idiopathic pruritus; experiment: Phase II randomized, double-blind, placebo-controlled clinical study of serlopitant for chronic pruritus (post hoc WI-NRS 4-point responder analysis); assay type: in vivo, human; conditions: for WI-NRS 4-point Responder Rate at Week 6: 6 weeks, 3-tablet loading dose Day 1

| Structure (SMILES) | thermodynamic stability of polymorph ([1]; Form I relative to Form II of free base serlopitant) | hygroscopicity ([1]; all tested relative humidity conditions) | response to serlopitant therapy as function of age (NRS change from baseline, NRS 4-point Responder Rate) (patients with pruritus) | WI-NRS 4-point Responder Rate at Week 6 ([2]; all patients, 0.25 mg once daily oral) | WI-NRS 4-point Responder Rate at Week 6 ([2]; all patients, 1 mg once daily oral) | WI-NRS 4-point Responder Rate at Week 6 ([2]; all patients, 5 mg once daily oral) | WI-NRS 4-point Responder Rate at Week 6 ([2]; patients with inflammatory skin disease, 0.25 mg once daily oral) | WI-NRS 4-point Responder Rate at Week 6 ([2]; patients with inflammatory skin disease, 1 mg once daily oral) | WI-NRS 4-point Responder Rate at Week 6 ([2]; patients with inflammatory skin disease, 5 mg once daily oral) | response to serlopitant therapy, patients without vs with inflammatory skin disease ([2]; patients without inflammatory skin disease compared with patients with inflammatory skin disease) | WI-NRS 4-point Responder Rate at Week 6 ([2]; patients without inflammatory skin disease, 0.25 mg once daily oral) | WI-NRS 4-point Responder Rate at Week 6 ([2]; patients without inflammatory skin disease, 1 mg once daily oral) | WI-NRS 4-point Responder Rate at Week 6 ([2]; patients without inflammatory skin disease, 5 mg once daily oral) |
| --- | --- | --- | --- | --- | --- | --- | --- | --- | --- | --- | --- | --- | --- |
| C[C@@H](O[C@H]1CC[C@@H]2CN(C3=CC(=O)CC3)C[C@H]2[C@@H]1c1ccc(F)cc1)c1cc(C(F)(F)F)cc(C(F)(F)F)c1 [Form I] | thermodynamically more stable below 70 °C | non-hygroscopic |  |  |  |  |  |  |  |  |  |  |  |
| CC(O[C@H]1CC[C@@H]2CN(C3=CC(=O)CC3)C[C@H]2[C@@H]1c1ccc(F)cc1)c1cc(C(F)(F)F)cc(C(F)(F)F)c1 (stereo partly drawn) [serlopitant, 3-[(3aR,4R,5S,7aS)-5-[(1R)-1-[3,5-bis(trifluoromethyl)phenyl]cthoxy]-4-(4-fluorophenyI)-1,3,3a,4,5,6,7,7a-octahydroisoindol-2-yl]cyclopent-2-en-1-one] |  |  | responded better | 38.5% (n = 52) | 32.7% (n = 55) | 46.2% (n = 52) | 30.8% (n = 26) | 29.6% (n = 27) | 33.3% (n = 18) | appeared to respond better | 46.2% (n = 26) | 35.7% (n = 28) | 52.9% (n = 34) |
